Test results: publication PMC6832960, “The Fragment-Based Development of a Benzofuran Hit as a New Class of Escherichia coli DsbA Inhibitors” (Molecules, 2019)

Tests used:
15N-labelled EcDsbA = biological target: T1, 15N-labelled EcDsbA (Escherichia coli, UniProt P0AEG4); test: 2D 1H-15N HSQC chemical shift perturbation / titration; format: binding; details: for Ligand Efficiency: LE = −RTln(KD)/HAC, 298 K; for fold decrease in binding affinity: relative to 25
T1 construct: made in house; protein recovered from the periplasm of the expressing cells
T1 sequence (P0AEG4 20-208): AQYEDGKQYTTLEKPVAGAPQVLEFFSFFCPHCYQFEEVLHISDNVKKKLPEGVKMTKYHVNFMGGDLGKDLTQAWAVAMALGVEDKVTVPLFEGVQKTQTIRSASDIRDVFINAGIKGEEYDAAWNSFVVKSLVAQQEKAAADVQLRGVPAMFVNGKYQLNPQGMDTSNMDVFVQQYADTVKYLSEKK
Protocol: Compounds that passed at least one ligand-detected NMR experiment were further validated by 2D ^1H-^15N heteronuclear single quantum coherence (HSQC) spectroscopy. In HSQC experiments, chemical shift perturbations (CSP) of backbone amide resonances of ^15N-labelled EcDsbA were measured upon addition of compound at 1 mM. […] In accordance with the crystal structure, the majority of the residues perturbed by 1 mM of benzofuran analogues in single-point HSQCs are located around the hydrophobic groove which is an important binding site for DsbA substrates (Figure 2A). […] Eight compounds produced large enough CSP (>0.04 ppm) to enable HSQC titration and KD determination.
For the 2D ^1H-^15N-HSQC titration experiment, 100 µM of ^15N-labelled EcDsbA in a buffer of 50 mM HEPES, pH 6.8, 50 mM NaCl, 2% ^2H6-DMSO, and 10% ^2H2O, was titrated with increasing concentrations of compounds ([…], 0.125, 0.25, 0.5, and 1 mM). Data were acquired on a Bruker 600 MHz spectrometer equipped with a 5 mm TXI CryoProbe and a Bruker 700 MHz spectrometer equipped with a 5 mm TXI CryoProbe. Data was processed by Topspin3.5 (Bruker) and analysed by Sparky (T. D. Goddard and D. G. Kneller, SPARKY 3, University of California, San Francisco (UCSF)). Weighted chemical shift perturbations (CSP) that were observed upon addition of compounds to EcDsbA were calculated using an Equation (1) in [41]: (1) CSP=ΔδH^2+(0.2×ΔδN)^2 where ΔδH and ΔδN denote the change in chemical shift of amide proton and nitrogen resonances upon addition of the compound. Equilibrium dissociation constants (KD) were determined by fitting the plot of CSP against compound concentrations using one site with ligand depletion model (Equation (2)): (2) CSP=CSPmax×[(KD+Pt+Lt)−((KD+Pt+Lt)^2−4×Pt×Lt)]/2×Pt where CSP is the measured CSP at a given concentration, CSPmax is the CSP observed at the saturating concentration of compound, and Pt and Lt are the total protein and compound concentrations. The ligand efficiency (LE) is calculated using the Equation (3) in [42]: (3) LE=−ΔG/HAC=−RTln(KD)/HAC where R is gas constant (1.9858775 cal K^−1 mol^−1), T is temperature (298 K), KD is equilibrium dissociation constant, and HAC is the number of heavy (non-hydrogen) atoms.

EcDsbA [1] = biological target: T2, EcDsbA (Escherichia coli, UniProt P0AEG4); test: CPMG ligand-detected NMR binding; details: compound 500 µM, unlabelled EcDsbA 10 µM, 298 K, spin-lock 350 ms
T2 construct: made in house; protein recovered from the periplasm of the expressing cells
T2 sequence (P0AEG4 20-208): as above
Description: (§1) To validate the binding of benzofuran analogues, three ligand-detected NMR methods, saturation-transfer difference (STD), Carr–Purcell–Meiboom–Gill (CPMG), and water–ligand observed via gradient spectroscopy (waterLOGSY), were employed to detect protein-ligand binding between the benzofurans and EcDsbA (Figure 2C). These experiments were designed as a primary screening tool to select analogues to undergo further affinity evaluation and prioritise compounds for crystal soaking. […] In a good agreement with this finding, eight out of nine benzofurans that passed all three ligand-detected experiments have their co-crystal structures successfully solved; in contrast, five compounds that failed two ligand-detected experiments only have one co-structure solved (Table 2).
(§2) For ligand-detected NMR spectroscopy, two samples (compound alone and compound + protein) were prepared for each compound. Unlabelled EcDsbA was prepared at 10 µM in a buffer of 50 mM sodium phosphate, pH 6.8, 25 mM NaCl, 100 µM 4,4-dimethyl 4-silapentane-1-sulfonic acid (DSS), and 10% ^2H2O. Compound was added to the protein sample to achieve final concentration of 500 µM (2% ^2H6-DMSO). ^1H 1D spectrum was acquired for each compound at 500 µM as a reference spectrum. All ligand-detected NMR experiments (STD, CPMG, and waterLOGSY) were acquired at 298 K on a Bruker Avance III 600 MHz NMR spectrometer equipped with a 5 mm TXI CryoProbe (Bruker, Billerica, MA, USA). STD spectra were acquired with 3 s of saturation at 1 ppm (on-resonance) and 33.3 ppm (off-resonance). WaterLOGSY spectra were acquired for compound alone and compound + protein with a 0.52 s acquisition time, 3 s relaxation delay, and 3 s Nuclear Overhauser effect (NOE) mixing time. CPMG spectra for compound alone and compound + protein were acquired with a constant spin echo delay of 1 ms and spin-lock period of 350 ms. The data was analysed using Topspin3.5 (Bruker) and DSS was used to reference the spectra.

EcDsbA [2] = biological target: T2, EcDsbA; test: Compound soaking into EcDsbA crystals and X-ray diffraction; format: binding; details: crystals soaked with compound at 10 mM (5% DMSO) for 3–6 h
Description: The synthesised analogues were soaked into crystals of EcDsbA and X-ray diffraction data was collected for each analogue in order to determine their site of binding. […] The carboxy moiety of 15 was oriented towards the left-hand side of the binding groove, where more polar residues are located. The phenyl ring of the aniline moiety occupied the hydrophobic end of the binding pocket with the nitrogen atom of the amine linker positioned in close proximity to Gln35. […] Although anisidine 16 was occupying a larger region of the EcDsbA binding groove, the shift appeared to have interrupted the π-stacking interactions the benzofuran was making with the His32 side chain previously (Figure 1B and Figure S1).
EcDsbA was crystallised as previously described. Briefly, 1 µL of 30 mg/mL EcDsbA was mixed with an equal volume of crystallisation buffer (11–13% PEG8000, 5–7.5% glycerol, 1 mM CuCl2, 100 mM, sodium cacodylate pH 6.1) and equilibrated against 500 µL of reservoir buffer at 20 °C using hanging drop vapour diffusion. For compound soaking, crystals were transferred into 2 µL drops of 24% PEG8000, 22% glycerol, and 100 mM sodium cacodylate (pH 6.1) containing a compound of interest at the final concentration of 10 mM (5% DMSO) and were incubated for 3–6 h. Crystals were mounted on loops and flash-cooled in liquid nitrogen.
Datasets were collected at the Australian synchrotron on MX1 and MX2 beamlines using the Blue-Ice software (Irvine, CA, USA). MX1 beamline was equipped with an ADSC Quantum 210r detector and MX2 with an ADSC Quantum 315r detector. All datasets were indexed and integrated with iMOSFLM [32] or XDS [33]—and scaled using AIMLESS [34, 35] or SCALA [36]. Phasing was performed by molecular replacement with Phaser using the previously solved structure of EcDsbA as a search model (PDB code 1FVK). The final structure was obtained after several rounds of manual model building using Coot and refinement in phenix.refine. Structures, factors and coordinates have been deposited in the Protein Data Bank (PDB; http://www.pdb.org) under the accession codes of 6PMF, 6POQ, 6POH, 6PML, 6PVY, 6POI, and 6PVZ.

EcDsbA [3] = biological target: T2, EcDsbA; test: STD ligand-detected NMR binding; details: compound 500 µM, unlabelled EcDsbA 10 µM, 298 K
Description: as §1, §2

EcDsbA [4] = biological target: T2, EcDsbA; test: waterLOGSY ligand-detected NMR binding; details: compound 500 µM, unlabelled EcDsbA 10 µM, 298 K
Description: as §1, §2

## O=C(O)C(NS(=O)(=O)c1ccccc1)c1coc2cc(Br)ccc12 (stereo not drawn)
other
  melting point: 179 to 182 °C

## O=C(O)Cc1coc2cc(Br)ccc12 [compound 6, 2-(6-Bromobenzofufran-3-yl)acetic acid]
15N-labelled EcDsbA; fragment hit from biophysical screening
  affinity to EcDsbA: high mM affinity

## COc1ccc(Nc2ccc3c(CC(=O)O)coc3c2)cc1 [compound 16, 2-(6-((4-Methoxyphenyl)amino)benzofuran-3-yl)acetic acid]
15N-labelled EcDsbA
  Kd: 2700 ± 920 µM
  Ligand Efficiency: 0.16 kcal mol^−1 HAC^−1
EcDsbA [1]
  CPMG: Pass
EcDsbA [2]
  Crystal Structure in EcDsbA: Yes
EcDsbA [3]
  STD: Fail
EcDsbA [4]
  wLOGSY: Pass
other
  melting point: 120 to 122 °C

## CCCCOc1ccc2c(CC(=O)O)coc2c1 [compound 21, 2-(6-Butoxybenzofuran-3-yl)acetic acid]
15N-labelled EcDsbA
  Kd: 1970 ± 640 µM
  Ligand Efficiency: 0.20 kcal mol^−1 HAC^−1
  fold decrease in binding affinity: six-fold decrease
EcDsbA [1]
  CPMG: Pass
EcDsbA [2]
  Crystal Structure in EcDsbA: Yes
EcDsbA [3]
  STD: Pass
EcDsbA [4]
  wLOGSY: Pass
other
  melting point: 108 to 109 °C

## CC(C)COc1ccc2c(CC(=O)O)coc2c1 [compound 22, 2-(6-Isobutoxybenzofuran-3-yl)acetic acid]
15N-labelled EcDsbA; single-point HSQC, compound at 1 mM
  chemical shift perturbations (CSP) of hydrophobic groove residues: too small to determine KD
EcDsbA [1]
  CPMG: Pass
EcDsbA [2]
  Crystal Structure in EcDsbA: Yes
EcDsbA [3]
  STD: Fail
EcDsbA [4]
  wLOGSY: Fail

## O=C(O)Cc1coc2cc(OCc3ccccc3)ccc12 [compound 23]
15N-labelled EcDsbA
  Kd: 820 ± 140 µM
  Ligand Efficiency: 0.20 kcal mol^−1 HAC^−1
EcDsbA [1]
  CPMG: Pass
EcDsbA [2]
  Crystal Structure in EcDsbA: Yes
EcDsbA [3]
  STD: Pass
EcDsbA [4]
  wLOGSY: Pass
other
  melting point: 153 to 155 °C

## O=C(O)Cc1coc2ccc(OCc3ccccc3)cc12 [compound 24, 2-(5-(Benzyloxy)benzofuran-3-yl)acetic acid]
EcDsbA [2]
  Crystal Structure in EcDsbA: did not show clear enough electron density
other
  melting point: 147 to 149 °C

## O=C(O)Cc1coc2cc(Oc3ccccc3)ccc12 [compound 25, 2-(6-Phenoxybenzofuran-3-yl)acetic acid]
15N-labelled EcDsbA
  Kd: 326 ± 25 µM
  Ligand Efficiency: 0.24 kcal mol^−1 HAC^−1
EcDsbA [1]
  CPMG: Pass
EcDsbA [2]
  Crystal Structure in EcDsbA: Yes
EcDsbA [3]
  STD: Pass
EcDsbA [4]
  wLOGSY: Pass

## COc1cccc(Oc2ccc3c(CC(=O)O)coc3c2)c1 [compound 26, 2-(6-(3-Methoxyphenoxy)benzofuran-3-yl)acetic acid]
15N-labelled EcDsbA
  Kd: 639 ± 87 µM
  Ligand Efficiency: 0.20 kcal mol^−1 HAC^−1
  fold decrease in binding affinity: 2 fold
EcDsbA [1]
  CPMG: Pass
EcDsbA [3]
  STD: Pass
EcDsbA [4]
  wLOGSY: Pass

## O=C(O)Cc1coc2cc(Cc3ccccc3)ccc12 [compound 28, 2-(6-Benzylbenzofuran-3-yl)acetic acid]
15N-labelled EcDsbA
  Kd: 341 ± 47 µM
  Ligand Efficiency: 0.24 kcal mol^−1 HAC^−1
EcDsbA [1]
  CPMG: Pass
EcDsbA [2]
  Crystal Structure in EcDsbA: Yes
EcDsbA [3]
  STD: Pass
EcDsbA [4]
  wLOGSY: Pass
other
  melting point: 124 to 127 °C

## Brc1ccc2c(Cc3nnn[nH]3)coc2c1 [compound 31, 5-((6-Bromobenzofuran-3-yl)methyl)-1H-tetrazole]
EcDsbA [1]
  CPMG: Pass
EcDsbA [2]
  Crystal Structure in EcDsbA: did not produce electron density and No
EcDsbA [3]
  STD: Pass
EcDsbA [4]
  wLOGSY: Pass

## O=C(O)Cc1c[nH]c2cc(Br)ccc12 [compound 34, 2-(6-Bromo-1H-indol-3-yl)acetic acid]
EcDsbA [2]
  Crystal Structure in EcDsbA: lack of electron density

## O=C(O)Cc1c[nH]c2cc(-c3ccccc3)ccc12 [compound 36, 2-(6-Phenyl-1H-indol-3-yl)acetic acid]
EcDsbA [1]
  CPMG: Pass
EcDsbA [2]
  Crystal Structure in EcDsbA: lack of electron density and No
EcDsbA [3]
  STD: Pass
EcDsbA [4]
  wLOGSY: Pass

## CC(=O)NC(C(=O)O)c1coc2cc(Br)ccc12 (stereo not drawn) [compound 46, 2-Acetamido-2-(6-bromobenzofuran-3-yl)acetic acid]
EcDsbA [1]
  CPMG: Fail
EcDsbA [2]
  Crystal Structure in EcDsbA: No
EcDsbA [3]
  STD: Fail
EcDsbA [4]
  wLOGSY: Pass
other
  melting point: 194 to 196 °C

## O=C(NC(C(=O)O)c1coc2cc(Br)ccc12)c1ccccc1 (stereo not drawn) [compound 47, 2-Benzamido-2-(6-bromobenzofuran-3-yl)-2-acetic acid]
EcDsbA [1]
  CPMG: Fail
EcDsbA [2]
  Crystal Structure in EcDsbA: No
EcDsbA [3]
  STD: Fail
EcDsbA [4]
  wLOGSY: Pass
other
  melting point: 209 to 212 °C

## COc1ccc(CC(=O)NC(C(=O)O)c2coc3cc(Br)ccc23)cc1 (stereo not drawn) [compound 48, 2-(6-Bromobenzofuran-3-yl)-2-(2-(4-methoxyphenyl)acetamido)acetic acid]
15N-labelled EcDsbA
  Kd: 1350 ± 420 µM
  Ligand Efficiency: 0.15 kcal mol^−1 HAC^−1
EcDsbA [1]
  CPMG: Fail
EcDsbA [2]
  Crystal Structure in EcDsbA: No
EcDsbA [3]
  STD: Fail
EcDsbA [4]
  wLOGSY: Pass
other
  melting point: 159 to 161 °C

## CS(=O)(=O)NC(C(=O)O)c1coc2cc(Br)ccc12 (stereo not drawn) [compound 50, 2-(6-Bromobenzofuran-3-yl)-2-(methylsulfonamido)acetic acid]
EcDsbA [1]
  CPMG: Pass
EcDsbA [2]
  Crystal Structure in EcDsbA: Yes
EcDsbA [3]
  STD: Pass
EcDsbA [4]
  wLOGSY: Pass
other
  melting point: 140 to 142 °C
